# Values joined by “and” are separate entries in the source; they are usually repeats but may differ in a detail not shown here. Equal entries are not always repeated. Where two headings read alike, the source gives them in different places.
# How the values were obtained:
# [1] = target: full-length P. pyralis luciferase (Photinus pyralis, UniProt P08659, K549A/L550V/N119G/N50D/S548I); assay type: cell-based; conditions: CC_NCI screening, normalized to on-plate 0.3% DMSO controls; for Luciferase Assay % Lum: full-length luciferase counter-screen luminescence; for Luciferase Assay Z-score: full-length luciferase counter-screen
# Chain of full-length P. pyralis luciferase (P08659 whole entry N50D/N119G/S548I/K549A/L550V, looked up): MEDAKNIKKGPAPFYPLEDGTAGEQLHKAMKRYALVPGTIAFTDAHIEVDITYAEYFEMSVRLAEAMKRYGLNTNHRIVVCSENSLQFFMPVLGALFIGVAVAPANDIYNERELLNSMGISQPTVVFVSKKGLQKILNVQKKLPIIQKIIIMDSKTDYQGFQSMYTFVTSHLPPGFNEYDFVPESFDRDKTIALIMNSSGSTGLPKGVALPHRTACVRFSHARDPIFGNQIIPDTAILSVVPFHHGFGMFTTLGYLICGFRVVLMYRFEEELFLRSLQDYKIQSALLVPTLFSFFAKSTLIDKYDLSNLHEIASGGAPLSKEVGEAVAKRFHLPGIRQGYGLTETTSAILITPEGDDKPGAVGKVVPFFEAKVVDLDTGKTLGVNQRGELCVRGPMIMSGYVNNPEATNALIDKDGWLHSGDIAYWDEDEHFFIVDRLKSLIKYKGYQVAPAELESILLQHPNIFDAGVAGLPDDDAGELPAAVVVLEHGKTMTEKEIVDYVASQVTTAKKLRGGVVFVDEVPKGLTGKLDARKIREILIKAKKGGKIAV
# Clone V cells = experiment: CellTiter Blue (CTB) cell viability counter-screen; conditions: CC_NCI screening, normalized to on-plate 0.3% DMSO controls; for Toxicity Assay % Fluor: CTB cell viability fluorescence; for Toxicity Assay Z-score: CTB cell viability
# [2] = target: T1, FGF14:Nav1.6 C-tail complex (Homo sapiens, UniProt Q92915+Q9UQD0); experiment: Split-luciferase complementation assay (LCA) in Clone V double stable HEK293 cells; assay type: cell-based; conditions: for Split Luciferase Assay Z-score Set 1 / Split Luciferase Assay Z-score Set 2: normalized to on-plate 0.3% DMSO controls
# T1 construct: polymerase chain reaction (PCR) amplification of the FGF14 open reading frame (nt 1–855); C-terminal fragment of Nav1.6 (amino acids 1763–1976) fused with CD4ΔC-tail (amino acids 1–395); expressed in transfected cells
# T1 sequence (Q92915 1-252 isoform Q92915-2): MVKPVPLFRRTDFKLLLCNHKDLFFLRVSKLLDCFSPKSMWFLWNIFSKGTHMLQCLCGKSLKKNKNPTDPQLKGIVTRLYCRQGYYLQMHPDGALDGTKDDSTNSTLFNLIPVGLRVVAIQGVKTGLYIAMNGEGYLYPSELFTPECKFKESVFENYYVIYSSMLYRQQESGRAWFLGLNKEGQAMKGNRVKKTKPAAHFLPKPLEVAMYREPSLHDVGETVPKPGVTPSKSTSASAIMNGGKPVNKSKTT
# T1 sequence (Q9UQD0 1763-1976 limits assumed): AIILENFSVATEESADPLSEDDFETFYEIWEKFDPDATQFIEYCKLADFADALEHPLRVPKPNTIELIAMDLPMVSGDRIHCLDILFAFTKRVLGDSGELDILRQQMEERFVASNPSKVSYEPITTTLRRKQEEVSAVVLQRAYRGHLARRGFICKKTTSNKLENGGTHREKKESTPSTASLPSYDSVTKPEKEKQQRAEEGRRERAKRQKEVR
# [3] = CC_NCI screening, LCA luminescence, biological replicate Set 1, normalized to on-plate 0.3% DMSO controls (n=16 per plate)
# [4] = CC_NCI screening, LCA luminescence, biological replicate Set 2, normalized to on-plate 0.3% DMSO controls (n=16 per plate)
# [5] = CC_NCI screening, LCA, biological replicate Set 1
# [6] = CC_NCI screening, LCA, biological replicate Set 2
# [7] = CC_NCI screening, average of Set 1 and Set 2, normalized to 0.3% DMSO controls
SMILES,Luciferase Assay % Lum [1],Luciferase Assay Z-score [1],Toxicity Assay % Fluor (Clone V cells),Toxicity Assay Z-score (Clone V cells),"Split Luciferase Assay % Lum Set 1 [2, 3]","Split Luciferase Assay %Lum Set 2 [2, 4]","Split Luciferase Assay Z-score Set 1 [2, 5]","Split Luciferase Assay Z-score Set 2 [2, 6]","Split Luciferase Assay %Lum Avg [2, 7]",other results
Cc1nc2c(O)cccc2c(=O)[nH]1 [NU 1025],–,–,–,–,–,–,–,–,–,"Luciferase Assay % Lum (full-length luciferase counter-screen) [1]: 89.72%; Luciferase Assay Z-score (full-length luciferase counter-screen) [1]: -1.32; Toxicity Assay % Fluor (CTB cell viability fluorescence) (Clone V cells): 111.16%; Toxicity Assay Z-score (CTB cell viability) (Clone V cells): 1.56; Split Luciferase Assay Z-score Set 1 ([2]; CC_NCI screening, biological replicate Set 1): -0.32; Split Luciferase Assay % Lum Set 1 ([2]; CC_NCI screening, biological replicate Set 1, normalized to on-plate 0.3% DMSO controls (n=16 per plate)): 95.99%; Split Luciferase Assay Z-score Set 2 ([2]; CC_NCI screening, biological replicate Set 2): -4.33; Split Luciferase Assay %Lum Set 2 ([2]; CC_NCI screening, biological replicate Set 2, normalized to on-plate 0.3% DMSO controls (n=16 per plate)): 46.81%; Split Luciferase Assay %Lum Avg ([2]; average of Set 1 and Set 2, normalized to 0.3% DMSO controls): 71.40%"
CCCS(=O)(=O)Nc1ccc(F)c(C(=O)c2c[nH]c3ncc(-c4ccc(Cl)cc4)cc23)c1F [Vemurafenib],93.28%,-0.86,86.56%,-1.88,104.69%,105.07%,0.38,0.41,104.88%,–
COc1cc(Nc2c(C#N)cnc3cc(OCCCN4CCN(C)CC4)c(OC)cc23)c(Cl)cc1Cl [BOSUTINIB],108.17%,1.05,88.31%,-1.63,–,94.67%,0.73,-0.43,101.85%,–
C[C@]12CC[C@@H]3c4ccc(O)cc4C[C@@H](CCCCCCCCC[S+]([O-])CCCC(F)(F)C(F)(F)F)[C@H]3[C@@H]1CC[C@@H]2O (stereo partly drawn) [Fulvestrant],83.45%,-2.12,83.63%,-2.29,94.90%,91.55%,-0.41,-0.69,93.23%,–
CO[C@H]1C[C@@H]2CC[C@@H](C)[C@@](O)(O2)C(=O)C(=O)N2CCCC[C@H]2C(=O)O[C@H]([C@H](C)C[C@@H]2CC[C@@H](OCCO)[C@H](OC)C2)CC(=O)[C@H](C)/C=C(\C)[C@@H](O)[C@@H](OC)C(=O)[C@H](C)C[C@H](C)/C=C/C=C/C=C/1C [Everolimus],72.79%,-3.48,91.22%,-1.23,76.42%,84.27%,-1.91,-1.28,80.34%,–
O=P(O)(O)C(O)(Cn1ccnc1)P(=O)(O)O [Zoledronic acid],94.25%,-0.74,89.11%,-1.52,100.34%,119.64%,0.03,1.60,109.99%,–
CO[C@H]1C(=O)[C@]2(C)[C@@H](OC)C[C@H]3OC[C@@]3(OC(C)=O)[C@H]2[C@H](OC(=O)c2ccccc2)[C@]2(O)C[C@H](OC(=O)[C@H](O)[C@@H](NC(=O)OC(C)(C)C)c3ccccc3)C(C)=C1C2(C)C [Cabazitaxel],90.38%,-1.23,82.13%,-2.50,101.43%,112.35%,0.12,1.01,106.89%,–
CN1CCN(CCOc2cc(OC3CCOCC3)c3c(Nc4c(Cl)ccc5c4OCO5)ncnc3c2)CC1 [AZD 0530],98.71%,-0.17,89.05%,-1.53,36.20%,60.34%,-5.16,-3.23,48.27%,–
CCCS(=O)(=O)Nc1ccc(F)c(C(=O)c2c[nH]c3ncc(-c4ccc(Cl)cc4)cc23)c1F [PLX4032],83.18%,-2.15,81.90%,-2.53,51.42%,47.85%,-3.93,-4.24,49.64%,–
Nc1nc2[nH]cc(CCc3ccc(C(=O)N[C@@H](CCC(=O)O)C(=O)O)cc3)c2c(=O)[nH]1 [Pemetrexed],94.26%,-0.73,94.67%,-0.74,112.30%,110.27%,0.99,0.84,111.29%,–
Cn1cnc2c(F)c(Nc3ccc(Br)cc3Cl)c(C(=O)NOCCO)cc21 [AZD 6244],96.05%,-0.51,108.13%,1.14,100.34%,90.51%,0.03,-0.77,95.42%,–
C=C1C[C@@H]2[C@H](CC[C@]3(C)C(=O)CC[C@@H]23)[C@@]2(C)C=CC(=O)C=C12 [Exemestane],90.38%,-1.23,91.81%,-1.14,–,–,0.73,-0.26,–,Split Luciferase Assay % Lum Set 1 [2]: 109.04%; Split Luciferase Assay %Lum Avg [2]: 102.89%; Split Luciferase Assay %Lum Set 2 [2]: 96.75%
"O=C(NOCC1CC1)c1ccc(F)c(F)c1Nc1ccc(I)cc1Cl [CI 1040, reference compound]",103.28%,0.42,85.93%,-1.97,50.33%,42.65%,-4.01,-4.67,46.49%,"Z-score (LCA primary screening) ([2]; 30 µM, 384-well, average of primary screening (n = 2), vs on-plate 0.3% DMSO): −4.34; IMin (% Luminescence) ([2]; antagonists, Clone V cells, 384-well, normalized to DMSO): 46.49 % Luminescence; IC50 ([2]; estimated, 8-point dose response 0.25-30 µM, n = 4 per concentration, library compounds, read-out: IC50): 14.8 µM"
O=C(c1cc(Cc2n[nH]c(=O)c3ccccc23)ccc1F)N1CCN(C(=O)C2CC2)CC1 [AZD 2281],105.07%,0.65,93.24%,-0.94,117.73%,92.59%,1.43,-0.60,105.16%,–
C[C@]1(c2nc3c(C(N)=O)cccc3[nH]2)CCCN1 [ABT-888],105.22%,0.67,107.03%,0.98,75.34%,93.63%,-1.99,-0.52,84.48%,–
CN(N=O)C(=O)N[C@@H](C=O)[C@@H](O)[C@H](O)[C@H](O)CO [Streptozocin],99.54%,-0.06,96.94%,-0.43,130.78%,124.84%,2.49,2.02,127.81%,–
Nc1cccc2c1CN(C1CCC(=O)NC1=O)C2=O (stereo not drawn) [Lenalidomide],104.96% and 92.77%,–,84.86% and 92.38%,–,144.91% and 107.95%,144.60% and 129.00%,3.63 and 0.64,3.63 and 2.36,144.76% and 118.47%,–

# — article PMC6858373 (Scientific Reports, 2019)
